Experimental data reported in patent US7534606B2, “Placental stem cell and methods thereof” (National Health Research Institutes, priority 2004, dated 2009).
Read-outs that look alike come from different tables or passages of the source.

Tests used:
[1] = tested on: placental stem cells; type: cell-based
Experimental: Immunocytochemistry and immunofluorescence and RT-PCR. Cultured cells were fixed with 4% paraformaldehyde for 5 minutes at room temperature and permeabilized with 0.1% Triton-X 100 for 20 minutes. Slides were then incubated sequentially with primary antibody overnight at 4° C. For immunocytochemistry, primary antibodies against NSE (Sigma) (1:25) was applied, followed by biotinylated anti-rabbit antibody and an avidin-biotin conjugate of hourseradish peroxidase (Vector Laboratories, Burlingame, Calif., USA). For immunofluorescence staining, primary antibodies against NeuN (Chemicon International Inc., Temecula, Calif., USA) (1:100), Nestin (BD Biosciences) (1:100), GFAP (glial fibrillary acidic protein, Chemicon International Inc.) (1:100), MAP2 (microtubule-associated protein 2, Chemicon International Inc.) (1:200), and NG2 (Chemicon International Inc.) (1:50) were used. Cy3 or fluorescein-labeled secondary antibodies were then applied for 1 hour at 37° C., and stained with 4′, 6-diamino-2-phenylindole (DAPI) (KPL Inc. Gaithersburg, Mass., USA) to identify cell nuclei. Cells were visualized by confocal fluorescence microscopy (Zeiss, LSM 510).
For RT-PCR, total RNA was isolated from cultured cells using Purescript (Gentra System, Minneapolis, Minn., USA), and 2 μg of total RNA was used for reverse transcription using Superscript II (Invitrogen, Carlsbad, Calif., USA). The cDNA was synthesized using Taq Platinum (Invitrogen) and 0.025 μg/μl oligo(dT). An equal volume of each sample was used to amplify human genes with 1 μM of each of the following primers: for the human nestin gene 5′-CCC TGA CCA CTC CAG TTT A-3′ and 5′-GAG TCC TGG ATT TCCTTC-3′; for the human Oct-4 gene 5′-GTGAAGCTGGAGAAGGAGAAGCTG-3′ and 5′-CAAGGGCCGCAGCTTACACATG-3′; and for the neurofilament light-chain (NF-L) gene 5′-CCC GAC TCA GTT TCA CC-3′ and 5′-CAG CCT TAG ACG CCT C-3′. Human glyceraldehyde-3-phosphate dehydrogenase (GAPDH) primers (Clontech, Palo Alto, Calif., USA) were used as internal controls for the PCR reactions. The cDNA from each sample was amplified for 30 cycles (1 min at 94° C., 1 min at 65° C., and 1 min at 72° C.). The PCR products were then separated by electrophoresis on 1.5% agarose gels. The sequence of each PCR product was confirmed using automatic sequencing.
Placental stem cells obtained according to Example 1 were plated on 35 mm culture dishes without coating, or if coated, with fibronectin, gelatin, or poly-L-Lysine (Sigma). Cells were cultured in serum-free DMEM-LG (Gibco) at various densities and exposed to either 10 ng/ml basic fibroblastic growth factor (b-FGF)/20 ng/ml epidermal growth factor (EGF) (both from R&D), retinoic acid (RA) (Sigma) at 10^−6M, β-mercaptoethanol/dimethysulfoxide/butylated hydroxyanisole (1×10^−5M βME/2% DMSO/100 μM BHA) (Sigma), or 0.5 mM 1-methyl-3-isobutylxanthine (IBMX, Sigma) for 3 to 6 days. Cells were then harvested for RT-PCR and immunocytochemical analysis as described above.
Differentiation to neural-like cells was quantified as a percentage of the total number of […] stem cells grown under differentiation conditions. Cells were stained for NSE expression and analyzed under an invert microscope. Five non-overlapping low power images were captured from each sample. […] Total cell count was determined by staining with 4′,6-diamidino-2-phenylindole (DAPI), which stains nuclei specifically, or with anti-human nuclei antibody (1:50) (Chemicon International Inc.).

[2] = tested on: placental stem cells; type: cell-based; conditions: after 24 hours of treatment; three independent experiments
[3] = tested on: human marrow stromal cells; conditions: Deng et al. 2001; cited from earlier work
[4] = IBMX-treated cultures, immunofluorescence

| SMILES | morphological changes (cytoplasm retracted, extensions) ([1]; 3 to 6 days in medium, RA 10^−6M, IBMX 0.5 mM, compared with expansion medium) | NSE expression compared with control cells ([1]; 3 to 6 days in medium, immunocytochemical staining) | astrocytes (GFAP) of the total cell count [1, 4] [%] | neurons (MAP2) of the total cell count [1, 4] | oligodendrocytes (NG2) of the total cell count [1, 4] [%] | placental stem cells differentiated ([1]; after 5 days of treatment, three independent experiments) | expression of neural filament light chain (NF-L) by RT-PCR ([1]; after five days of treatment) | dose dependence of induced differentiation ([1]; data not shown) | effect of removal from the culture medium ([1]; data not shown) | time to first morphological changes ([1]; in a portion of placental stem cells) [hours] | placental stem cells differentiated [2] [%] | expression of GFAP [3] | expression of NSE [3] | differentiation into neural-like cells ([1]; after 6 days of incubation, RA 10^−6M, IBMX 0.5 mM, retracted cell bodies and positive NSE staining, % of total cells) |
| --- | --- | --- | --- | --- | --- | --- | --- | --- | --- | --- | --- | --- | --- | --- |
| CC(C)Cn1c(=O)n(C)c(=O)c2[nH]cnc21 [IBMX, 1-methyl-3-isobutylxanthine] | morphological changes | higher levels of NSE | ~1 | approximately 16% | ~17 | more than 40% | detected | dose-dependent effect | reversion of the cells to their original phenotype | 2 | 7 | no expression of GFAP | increased expression of NSE |  |
| CC1=C(/C=C/C(C)=C/C=C/C(C)=C/C(=O)O)C(C)(C)CCC1 [RA, retinoic acid] |  |  |  |  |  |  |  |  |  |  |  |  |  | about 10% |
